Experimental data from ChEMBL document CHEMBL1201862, “PubChem BioAssay data set” (2004).
Activity calls are given as the source filed them.

Key:
[1] = HepG2 cell cytotoxicity, dose response, cytotoxicity control, cherry-picks, set 5 (AID 1053118); assay type: functional, cell-based
[2] = A549 cell cytotoxicity, dose response, cytotoxicity control, cherry-picks, 26 µM top dose (AID 1053119); assay type: functional, cell-based
[3] = HEK293 cell cytotoxicity, dose response, cytotoxicity control, cherry-picks, set 5 (AID 1053117); assay type: functional, cell-based
[4] = HepG2 cell cytotoxicity, dose response, cytotoxicity control, cherry-picked samples (AID 1159577); assay type: functional, cell-based
[5] = P. falciparum Dd2 growth inhibitors, dose response, SYBR Green, cherry-picked samples (AID 1159567); assay type: functional, cell-based
[6] = ARNT/TACC3 interaction disruptors, potency, confirmation, biochemical, AlphaScreen, cherry-picked samples (AID 651703); assay type: functional, Homo sapiens;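 further: His-tagged ARNT PAS-B domain paired with GST-TACC3 E629A dimer coactivator fragment; potency of inhibitors that break up the complex and lower AlphaScreen signal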
cells [7] = assay type: functional, cell-based
[8] = target: T1, Nuclear receptor subfamily 0 group B member 1 (Homo sapiens, UniProt P51843); assay type: functional, cell-based;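 further: HEK293T cells transfected with SF-1 and DAX-1 plus StAR promoter luciferase reporter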
T1 sequence (P51843 whole entry): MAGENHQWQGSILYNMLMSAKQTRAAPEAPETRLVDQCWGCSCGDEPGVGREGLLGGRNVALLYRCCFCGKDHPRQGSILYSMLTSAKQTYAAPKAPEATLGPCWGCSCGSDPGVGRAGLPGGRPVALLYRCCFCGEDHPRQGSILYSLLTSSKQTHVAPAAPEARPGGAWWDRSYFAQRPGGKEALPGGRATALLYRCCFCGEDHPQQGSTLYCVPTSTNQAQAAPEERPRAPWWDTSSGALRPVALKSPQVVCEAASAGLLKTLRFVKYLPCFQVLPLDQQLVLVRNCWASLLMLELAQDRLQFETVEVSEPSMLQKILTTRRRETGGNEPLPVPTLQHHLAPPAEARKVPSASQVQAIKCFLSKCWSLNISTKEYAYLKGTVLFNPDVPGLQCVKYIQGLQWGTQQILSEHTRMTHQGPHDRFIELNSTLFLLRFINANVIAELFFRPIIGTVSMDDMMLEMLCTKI

HEK293 = assay: inhibitors of LMP1-driven NF-kB reporter, dose response, cell-based, HEK293, luciferase, cherry-pick (AID 588343); assay type: functional; settings: Homo sapiens
Paired box protein Pax-8 = Paired box protein Pax-8 (Homo sapiens, UniProt Q06710); assay: inhibitors of PAX8-driven TPO luciferase reporter, dose response, RMG-I cells, cherry-pick (AID 687027); assay type: functional, cell-based;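 further: luciferase reporter driven by Pax8 target thyroperoxidase promoter measured by SteadyGlo luminescence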
Sequence of Paired box protein Pax-8 (Q06710 whole entry): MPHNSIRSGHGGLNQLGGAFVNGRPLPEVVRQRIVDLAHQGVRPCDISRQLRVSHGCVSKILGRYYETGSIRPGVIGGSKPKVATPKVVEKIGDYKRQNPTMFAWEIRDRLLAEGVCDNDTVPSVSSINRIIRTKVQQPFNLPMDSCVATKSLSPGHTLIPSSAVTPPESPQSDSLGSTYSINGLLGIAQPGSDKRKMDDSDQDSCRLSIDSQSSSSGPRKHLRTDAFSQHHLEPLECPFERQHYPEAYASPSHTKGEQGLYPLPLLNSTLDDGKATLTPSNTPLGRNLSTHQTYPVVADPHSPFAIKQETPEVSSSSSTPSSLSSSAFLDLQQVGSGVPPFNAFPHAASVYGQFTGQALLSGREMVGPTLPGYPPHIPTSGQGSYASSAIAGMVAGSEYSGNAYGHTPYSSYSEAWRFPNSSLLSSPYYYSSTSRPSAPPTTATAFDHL

[9] = non-specific cell cytotoxicity, dose response, cytotoxicity control for PAX8 inhibitor project, plate reader, dry powder samples (AID 743021); assay type: functional, cell-based
Beta-galactosidase = Beta-galactosidase (Escherichia coli, UniProt Q8VNN2); assay: beta-galactosidase enzyme inhibitors and activators, dose response, artefact control for CCR6 antagonist project, biochemical, E. coli enzyme, set 3 (AID 504712); assay type: functional
Sequence of Beta-galactosidase (Q8VNN2 whole entry): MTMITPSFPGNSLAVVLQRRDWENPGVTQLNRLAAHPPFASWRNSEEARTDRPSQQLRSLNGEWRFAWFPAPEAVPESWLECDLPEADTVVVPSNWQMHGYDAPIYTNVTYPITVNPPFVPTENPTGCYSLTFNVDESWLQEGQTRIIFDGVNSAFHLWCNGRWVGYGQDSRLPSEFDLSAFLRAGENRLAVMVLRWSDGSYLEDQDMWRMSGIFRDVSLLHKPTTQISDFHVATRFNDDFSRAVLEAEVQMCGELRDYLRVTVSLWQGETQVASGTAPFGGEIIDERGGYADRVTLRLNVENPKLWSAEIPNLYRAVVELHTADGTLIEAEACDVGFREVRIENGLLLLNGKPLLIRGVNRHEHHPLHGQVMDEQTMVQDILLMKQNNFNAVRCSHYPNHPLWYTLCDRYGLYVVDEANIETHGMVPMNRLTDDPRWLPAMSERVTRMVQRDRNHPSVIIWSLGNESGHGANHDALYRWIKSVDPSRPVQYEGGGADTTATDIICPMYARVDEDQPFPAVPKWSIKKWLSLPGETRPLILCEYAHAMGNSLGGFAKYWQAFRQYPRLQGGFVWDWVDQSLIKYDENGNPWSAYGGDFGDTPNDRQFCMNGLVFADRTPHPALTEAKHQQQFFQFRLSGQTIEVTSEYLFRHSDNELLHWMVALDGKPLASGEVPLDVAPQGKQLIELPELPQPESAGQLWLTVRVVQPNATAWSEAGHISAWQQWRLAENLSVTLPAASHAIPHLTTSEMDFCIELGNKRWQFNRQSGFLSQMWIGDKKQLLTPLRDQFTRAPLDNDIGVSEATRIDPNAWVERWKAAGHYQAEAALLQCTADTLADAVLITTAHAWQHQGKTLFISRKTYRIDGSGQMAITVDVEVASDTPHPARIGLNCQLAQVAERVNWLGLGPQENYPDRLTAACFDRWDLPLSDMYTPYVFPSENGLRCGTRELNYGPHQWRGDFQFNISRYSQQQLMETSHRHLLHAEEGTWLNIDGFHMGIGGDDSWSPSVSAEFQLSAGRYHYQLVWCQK

[10] = target: T2, Apoptotic protease-activating factor 1 (Homo sapiens, UniProt O14727); assay type: functional
T2 sequence (O14727 whole entry): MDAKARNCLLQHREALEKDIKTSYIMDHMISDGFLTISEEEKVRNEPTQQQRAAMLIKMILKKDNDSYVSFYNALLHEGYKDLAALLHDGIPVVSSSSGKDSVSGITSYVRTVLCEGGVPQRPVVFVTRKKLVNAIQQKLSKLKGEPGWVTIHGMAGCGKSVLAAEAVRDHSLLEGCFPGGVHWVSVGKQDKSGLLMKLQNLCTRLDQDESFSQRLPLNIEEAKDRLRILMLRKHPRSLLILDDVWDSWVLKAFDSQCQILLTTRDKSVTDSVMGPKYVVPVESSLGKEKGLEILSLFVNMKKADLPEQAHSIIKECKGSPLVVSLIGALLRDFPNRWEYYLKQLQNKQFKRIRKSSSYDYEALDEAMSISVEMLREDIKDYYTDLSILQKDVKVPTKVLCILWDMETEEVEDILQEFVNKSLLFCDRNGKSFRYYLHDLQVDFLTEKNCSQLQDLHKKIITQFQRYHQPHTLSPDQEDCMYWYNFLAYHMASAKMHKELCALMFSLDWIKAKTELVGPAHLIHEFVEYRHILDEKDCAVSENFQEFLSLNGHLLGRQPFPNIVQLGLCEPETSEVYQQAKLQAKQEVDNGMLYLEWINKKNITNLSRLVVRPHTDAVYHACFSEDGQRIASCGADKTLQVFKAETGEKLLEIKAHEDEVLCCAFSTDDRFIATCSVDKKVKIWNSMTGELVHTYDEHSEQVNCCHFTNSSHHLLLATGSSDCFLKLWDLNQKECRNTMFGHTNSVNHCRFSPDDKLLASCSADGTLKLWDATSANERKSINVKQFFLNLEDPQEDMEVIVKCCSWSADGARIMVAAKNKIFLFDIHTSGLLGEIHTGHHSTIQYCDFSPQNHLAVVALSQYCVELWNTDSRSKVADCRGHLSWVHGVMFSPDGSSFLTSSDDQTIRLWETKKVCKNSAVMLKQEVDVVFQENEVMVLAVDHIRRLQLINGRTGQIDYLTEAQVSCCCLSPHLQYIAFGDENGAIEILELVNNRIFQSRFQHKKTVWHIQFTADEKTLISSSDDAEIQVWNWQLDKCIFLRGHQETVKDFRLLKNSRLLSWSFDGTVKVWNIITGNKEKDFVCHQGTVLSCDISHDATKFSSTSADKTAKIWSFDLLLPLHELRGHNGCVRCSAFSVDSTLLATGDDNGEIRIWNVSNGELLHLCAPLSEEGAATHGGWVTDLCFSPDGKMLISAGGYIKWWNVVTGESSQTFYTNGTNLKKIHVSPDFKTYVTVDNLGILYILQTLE

[11] = target: Long-chain-fatty-acid--AMP ligase FadD28 (Mycobacterium tuberculosis, UniProt P9WQ59); assay: Fluorescence polarization aasay to screen for inhibitors that compete for the binding of FadD28 to a bisubstrate Measured in Biochemical System Using Plate Reader - 2147-01_Inhibitor_Dose_CherryPick_Activity.; assay type: functional, Mycobacterium tuberculosis H37Rv
Sequence of Long-chain-fatty-acid--AMP ligase FadD28 (P9WQ59 whole entry): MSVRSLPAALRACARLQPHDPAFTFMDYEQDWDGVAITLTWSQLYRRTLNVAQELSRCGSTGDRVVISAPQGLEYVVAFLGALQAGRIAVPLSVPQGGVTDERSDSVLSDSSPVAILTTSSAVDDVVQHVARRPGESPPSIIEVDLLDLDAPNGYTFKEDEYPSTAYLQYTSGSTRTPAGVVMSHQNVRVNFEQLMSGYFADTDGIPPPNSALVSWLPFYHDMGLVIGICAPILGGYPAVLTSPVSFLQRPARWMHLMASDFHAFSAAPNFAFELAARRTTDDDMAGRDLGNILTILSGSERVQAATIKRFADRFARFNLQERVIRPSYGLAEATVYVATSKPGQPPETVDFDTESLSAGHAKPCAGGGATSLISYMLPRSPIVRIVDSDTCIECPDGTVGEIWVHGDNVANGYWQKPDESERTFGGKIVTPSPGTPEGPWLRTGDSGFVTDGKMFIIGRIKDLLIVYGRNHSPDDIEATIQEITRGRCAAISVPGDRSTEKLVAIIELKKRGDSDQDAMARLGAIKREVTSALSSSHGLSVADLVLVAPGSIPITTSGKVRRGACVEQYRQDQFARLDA

Genome polyprotein = Genome polyprotein (dengue virus type 2, UniProt P29990); assay: Dengue-2 NS5 methyltransferase inhibitors, primary screen, biochemical, confirmation dose response (AID 588689); assay type: functional
Sequence of Genome polyprotein (P29990 2492-3391 limits assumed): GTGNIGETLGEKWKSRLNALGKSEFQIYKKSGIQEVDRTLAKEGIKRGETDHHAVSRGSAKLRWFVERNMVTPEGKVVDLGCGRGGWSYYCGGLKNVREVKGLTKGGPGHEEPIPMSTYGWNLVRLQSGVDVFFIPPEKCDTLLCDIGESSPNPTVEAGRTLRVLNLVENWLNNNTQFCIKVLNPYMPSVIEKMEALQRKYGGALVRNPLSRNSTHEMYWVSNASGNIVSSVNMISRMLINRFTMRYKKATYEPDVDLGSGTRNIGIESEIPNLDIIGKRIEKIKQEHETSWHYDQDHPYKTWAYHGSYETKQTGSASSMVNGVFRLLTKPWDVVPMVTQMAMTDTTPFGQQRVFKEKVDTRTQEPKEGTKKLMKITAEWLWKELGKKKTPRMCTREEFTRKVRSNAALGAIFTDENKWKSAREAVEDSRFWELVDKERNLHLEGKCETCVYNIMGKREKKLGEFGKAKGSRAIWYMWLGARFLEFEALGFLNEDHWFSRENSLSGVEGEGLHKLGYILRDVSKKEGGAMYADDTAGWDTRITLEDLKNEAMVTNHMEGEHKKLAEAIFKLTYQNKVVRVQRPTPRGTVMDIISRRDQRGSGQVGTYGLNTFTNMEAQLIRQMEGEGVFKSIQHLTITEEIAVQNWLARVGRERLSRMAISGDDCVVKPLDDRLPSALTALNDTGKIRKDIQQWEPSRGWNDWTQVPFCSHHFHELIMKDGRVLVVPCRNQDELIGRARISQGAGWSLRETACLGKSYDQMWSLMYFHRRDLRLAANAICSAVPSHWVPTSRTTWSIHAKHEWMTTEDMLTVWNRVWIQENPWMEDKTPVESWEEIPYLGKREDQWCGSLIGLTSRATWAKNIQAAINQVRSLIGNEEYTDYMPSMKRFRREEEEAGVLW

Vero = Vero cell cytotoxicity, cytotoxicity control for flavivirus capping enzyme inhibitors (AID 588742); assay type: functional; settings: Chlorocebus sabaeus
[12] = target: T3, Oxysterols receptor LXR-beta (Homo sapiens, UniProt P55055); assay type: functional, cell-based;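 further: Cell-based luminescence dose-response assay of agonist activity at LXR, run as a confirmatory counterscreen to a daf-12 agonist screen; HEK293 cells with Gal4-LXR fusion and GAL4-driven luciferase reporter; agonist potency from rising luciferase signal of a Gal4-LXR reporter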
T3 sequence (P55055 whole entry): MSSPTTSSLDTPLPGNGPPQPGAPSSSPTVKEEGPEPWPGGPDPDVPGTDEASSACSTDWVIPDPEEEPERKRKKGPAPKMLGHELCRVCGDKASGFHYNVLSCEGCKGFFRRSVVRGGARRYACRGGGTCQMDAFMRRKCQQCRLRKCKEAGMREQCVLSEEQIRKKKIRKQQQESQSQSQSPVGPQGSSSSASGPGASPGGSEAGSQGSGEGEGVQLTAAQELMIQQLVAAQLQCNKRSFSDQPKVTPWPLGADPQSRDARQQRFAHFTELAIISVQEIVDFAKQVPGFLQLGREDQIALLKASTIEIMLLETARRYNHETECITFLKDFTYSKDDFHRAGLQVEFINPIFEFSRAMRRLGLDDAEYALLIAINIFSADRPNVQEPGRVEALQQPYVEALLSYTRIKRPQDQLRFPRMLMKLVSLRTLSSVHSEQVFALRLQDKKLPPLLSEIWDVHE

cells [13] = assay: cells

CO[C@@H]1CN(C)C(=O)c2ccc(NC(=O)c3ccc(-c4ccccc4)cc3)cc2OC[C@H](C)NC[C@@H]1C
AC50 [1]: 12.2 µM (active)
AC50 [2]: 16.2 µM (active)
AC50 [3]: 18.1 µM (active)
AC50 [4]: 8.05 µM (active)
AC50 [5]: 4.99 µM (active)

COc1ccc(-c2oc3cc(O)c(OC)c(O)c3c(=O)c2OC)cc1O [CENTAUREIDIN]
AC50 [6]: 101 µM (active)
IC50 (cells [7]): > 67.5 µM (inactive)
IC50 [8]: 35 µM (inactive)

COc1ccc(N2C(=O)CC(Sc3nnc(-c4ccccc4)o3)C2=O)cc1 (stereo not drawn)
AC50 (HEK293): 19.6 µM (active)
AC50 (Paired box protein Pax-8): 10.4 µM (active)
AC50 [9]: 44.9 µM (active)
IC50 (Beta-galactosidase): > 66.6 µM (inactive)

Cc1coc2c1C(=O)C(=O)c1c-2ccc2c1CCCC2(C)C [TANSHINONE IIA]
IC50 [10]: 4.82 µM (active)
AC50 [11]: 88.9 µM (active)
IC50 (Genome polyprotein): > 100 µM (active)
CC50 (Vero): 9.09 µM (active)

Cc1cc(N/C=C/C(=O)c2cccs2)ccc1F
EC50 [12]: > 67.6 µM (inactive)
EC50 (cells [13]): > 67.6 µM (inactive)
